The structures appear in SMILES notation. Like-named read-outs stand apart in the source and are kept apart here.

We go through 33 compounds from patent US20120010075A1 (priority 2009, published 2012).

Series [1] deals with Leptosphaeria nodorum (LEPTNO). As to the kind of experiment: In vitro fungitoxicity of hydrazones with and without copper towards Leptosphaeria nodorum (Example 26). It is filed as cell-based. Particulars: 72 h at 25° C.; for inhibition of growth at 0.05 µg/mL: Parastagonospora nodorum, 72 h, copper-minus medium, read-out: LEPTNO % Inhn. Minus Copper Observed.
A further series concerns Phytophthora infestans. It is filed as in vivo, Phytophthora infestans on tomato. The following applies: applied 24 h before inoculation, assessed 7 days after inoculation.
Setting [2] is: compound 0.05 μg/mL, copper-plus medium (CuCl2.2H2O).
[3] abbreviates: hydrazone 50 ppm + 50 μM CuCl2.2H2O, tomato.
Where [4] appears, read: test compound Concn. 0.05 μg/mL.
The mark [5] stands for this setting: copper-plus medium (CuCl2 10 μM), test compound Concn. 0.05 μg/mL.
[6] abbreviates: hydrazone 50 ppm with 50 μM CuCl2.2H2O, tomato late blight.

Regarding `C/C(=N\NC(=O)c1ccccc1C)c1cc(Br)ccc1O` [Example 288], the melting point lay within 201 to 203 °C. For the same compound, the inhibition of growth at 0.05 µg/mL in series [1] (compound 0.05 μg/mL) stood at 1.8%. Moreover, the “LEPTNO % Inhn. Plus Copper Observed” value in series [1] (setting [2]) is 98.2%. Further, the “TLB % Control” value with Phytophthora infestans (setting [3]) was 26.0%.
With `COc1cc(O)c(/C(C)=N/NC(=O)c2ccc(Br)cc2)c(OC)c1` [Example 570], the melting point was in the range of 134 to 159 °C. The inhibition of growth at 0.05 µg/mL in series [1] (setting [4]) was determined as 3.2%. In series [1] (setting [5]), the “LEPTNO % Inhn. Plus Copper Observed” value was 97.2%. Further, in the series on Phytophthora infestans (setting [6]), the “TLB % Control” value came out at 39.0%.
Take `C/C(=N\NC(=O)c1cccc(C)c1)c1cccc([N+](=O)[O-])c1O` [Example 270]: the melting point fell in the range of 235 to 239 °C. In series [1] (compound 0.05 μg/mL), the inhibition of growth at 0.05 µg/mL was 6.9%. In series [1] (setting [2]), the “LEPTNO % Inhn. Plus Copper Observed” value amounted to 98.6%. In addition, in the series with Phytophthora infestans (setting [3]), the “TLB % Control” value turned out to be 61.0%.
For `C/C(=N\NC(=O)c1ccc(Cl)cc1)c1cc(C)ccc1O` [Example 317], the melting point is 203 to 210 °C. The inhibition of growth at 0.05 µg/mL in series [1] (setting [4]) was 16.3%. Also, the “LEPTNO % Inhn. Plus Copper Observed” value in series [1] (setting [5]) was 97.9%. The “TLB % Control” value in the series on Phytophthora infestans (setting [6]) was found to be 24.0%.
The matching figures for `CC(C)(C)/C(=N\NC(=O)c1ccccc1)c1ccccc1O` [Example 592]: 241 to 243 °C, 0%, 25.4% and 1.4%.
With `COc1ccc(O)c(/C(C)=N/NC(=O)c2cccc(C)c2)c1` [Example 263], the melting point fell in the range of 131 to 141 °C. Further, the inhibition of growth at 0.05 µg/mL in series [1] (compound 0.05 μg/mL) was determined as 4.1%. In addition, the “LEPTNO % Inhn. Plus Copper Observed” value in series [1] (setting [2]) turned out to be 97.9%. Further, in the series on Phytophthora infestans (setting [3]), the “TLB % Control” value came out at 14.0%.
`O=C(N/N=C/c1cc(Cl)cc(C(F)(F)F)c1O)c1cccc(F)c1` [Example 378]: the melting point lay in the range of 219 to 221 °C. Besides, the inhibition of growth at 0.05 µg/mL in series [1] (setting [4]) was 26.3%. For the same compound, the “LEPTNO % Inhn. Plus Copper Observed” value in series [1] (setting [5]) is 98.4%. In the series on Phytophthora infestans (setting [6]), the “TLB % Control” value is 97.0%.
The matching figures for `Cc1ccc(C(=O)N/N=C/c2cc(C(F)(F)F)cc(Cl)c2O)c(O)c1` [Example 331]: 255 to 257 °C, 22.8%, 97.8% and 100.0%.
Compound `COc1cccc(C(=O)N/N=C/c2cc(Cl)cc(Br)c2O)c1C` [Example 132] displayed a melting point of 187 to 189 °C. The inhibition of growth at 0.05 µg/mL in series [1] (compound 0.05 μg/mL) worked out at 9.1%. For the same compound, the “LEPTNO % Inhn. Plus Copper Observed” value in series [1] (setting [2]) was found to be 97.7%. In addition, in the series with Phytophthora infestans (setting [3]), the “TLB % Control” value is reported as 65.5%.
`C/C(=N\NC(=O)c1ccccc1Br)c1cccc(Cl)c1O` [Example 502] gave a melting point of 178 to 183 °C. Also, the inhibition of growth at 0.05 µg/mL in series [1] (setting [4]) stood at 4.2%. The “LEPTNO % Inhn. Plus Copper Observed” value in series [1] (setting [5]) is listed as 97.2%. Moreover, the “TLB % Control” value with Phytophthora infestans (setting [6]) is 85.0%.
The matching figures for `Cc1cccc(C(=O)N/N=C/c2ccc(Cl)c(Cl)c2O)c1` [Example 354]: 212 to 214 °C, 18.4%, 95.4% and 98.0%.
The matching figures for `O=C(N/N=C/c1c(O)cccc1Cl)c1cccc(F)c1` [Example 400]: 257 to 259 °C, 0.5%, 97.9% and 96.0%.
On to `COc1ccc(/C(C)=N/NC(=O)c2ccc(C)cc2)c(O)c1OC` [Example 554], for which the melting point lay within 245 to 249 °C. In series [1] (setting [4]), the inhibition of growth at 0.05 µg/mL was 0%. The “LEPTNO % Inhn. Plus Copper Observed” value in series [1] (setting [5]) came to 97.3%. Further, the “TLB % Control” value in the series on Phytophthora infestans (setting [6]) turned out to be 100.0%.
For the compound `O=C(N/N=C/c1cc(Cl)cc(Br)c1O)c1ccc(OC(F)(F)F)cc1` [Example 106], the melting point was 210 to 220 °C. Moreover, the inhibition of growth at 0.05 µg/mL in series [1] (compound 0.05 μg/mL) came to 0%. Besides, the “LEPTNO % Inhn. Plus Copper Observed” value in series [1] (setting [2]) is recorded as 94.6%. The “TLB % Control” value with Phytophthora infestans (setting [3]) is 88.7%.
As for `C/C(=N\NC(=O)c1ccc(C)cc1)c1cc(Br)ccc1O` [Example 290], the melting point lay within 245 to 248 °C. Further, the inhibition of growth at 0.05 µg/mL in series [1] (compound 0.05 μg/mL) is 0.4%. In addition, the “LEPTNO % Inhn. Plus Copper Observed” value in series [1] (setting [2]) is 95.5%. Further, the “TLB % Control” value in the series on Phytophthora infestans (setting [3]) turned out to be 21.0%.
Compound `C/C(=N\NC(=O)c1ccc(C(F)(F)F)cc1)c1cc(Br)cc(Br)c1O` [Example 548] displayed a melting point of 255 to 257 °C. Moreover, the inhibition of growth at 0.05 µg/mL in series [1] (setting [4]) was 6.7%. Besides, the “LEPTNO % Inhn. Plus Copper Observed” value in series [1] (setting [5]) was determined as 97.5%. Further, in the series with Phytophthora infestans (setting [6]), the “TLB % Control” value is reported as 98.0%.
In turn, `COc1ccc(/C(C)=N/NC(=O)c2ccc(C(F)(F)F)cc2)c(O)c1` [Example 472] gave a melting point of 251 to 252 °C. In series [1] (setting [4]), the inhibition of growth at 0.05 µg/mL came to 0%. For the same compound, the “LEPTNO % Inhn. Plus Copper Observed” value in series [1] (setting [5]) was determined as 97.7%. In the series on Phytophthora infestans (setting [6]), the “TLB % Control” value turned out to be 49.0%.
`Cc1ccc(C(=O)N/N=C/c2c(C(F)(F)F)ccc(Cl)c2O)c(O)c1` [Example 457]: the melting point lay in the range of 258 to 260 °C. Further, the inhibition of growth at 0.05 µg/mL in series [1] (setting [4]) was 6.7%. For the same compound, the “LEPTNO % Inhn. Plus Copper Observed” value in series [1] (setting [5]) is 100.0%. Besides, the “TLB % Control” value in the series on Phytophthora infestans (setting [6]) was 100.0%.
For `N#Cc1cc(Br)c(O)c(/C=N/NC(=O)c2ccccc2)c1` [Example 306], the melting point lay in the range of 290 to 291 °C. In addition, in series [1] (setting [4]), the inhibition of growth at 0.05 µg/mL came to 0%. The “LEPTNO % Inhn. Plus Copper Observed” value in series [1] (setting [5]) was 95.2%. In addition, the “TLB % Control” value in the series with Phytophthora infestans (setting [6]) was found to be 35.0%.
Taken in the same sequence, the figures for `O=C(N/N=C/c1cc(Cl)c(C(F)(F)F)cc1O)c1ccccc1` [Example 318] were 242 to 243 °C, 3.1%, 97.3% and 71.2%.
Taken in the same sequence, the figures for `C/C(=N\NC(=O)c1ccc(C(F)(F)F)cc1)c1cccc([N+](=O)[O-])c1O` [Example 523] were 267 to 278 °C, 7%, 97.7% and 92.0%.
The matching figures for `Cc1ccc(C(=O)N/N=C/c2cccc(C(F)(F)F)c2O)c(O)c1` [Example 352]: 248 to 253 °C, 8.8%, 98.4% and 100.0%.
In turn, `C/C(=N\NC(=O)c1ccccc1Br)c1cc(Cl)ccc1O` [Example 514] displayed a melting point of 222 to 225 °C. The inhibition of growth at 0.05 µg/mL in series [1] (setting [4]) amounted to 0%. Besides, the “LEPTNO % Inhn. Plus Copper Observed” value in series [1] (setting [5]) was found to be 97.7%. Also, the “TLB % Control” value in the series on Phytophthora infestans (setting [6]) is given as 75.0%.
Taken in the same sequence, the figures for `O=C(N/N=C/c1cc(C(F)(F)F)cc(C(F)(F)F)c1O)c1ccc(F)cc1` [Example 335] were 226 to 228 °C, 10.2%, 96.8% and 95.0%.
For the compound `COc1cccc(O)c1/C=N/NC(=O)c1ccccc1` [Example 237], the melting point lay in the range of 215 to 216 °C. For the same compound, in series [1] (compound 0.05 μg/mL), the inhibition of growth at 0.05 µg/mL was found to be 0%. Also, the “LEPTNO % Inhn. Plus Copper Observed” value in series [1] (setting [2]) amounted to 91.8%. In addition, the “TLB % Control” value in the series with Phytophthora infestans (setting [3]) was determined as 45.0%.
As to `C/C(=N\NC(=O)c1ccc(Br)cc1)c1cc(Br)cc(Br)c1O` [Example 547], the melting point lay within 264 to 266 °C. For the same compound, the inhibition of growth at 0.05 µg/mL in series [1] (setting [4]) turned out to be 10.8%. Further, in series [1] (setting [5]), the “LEPTNO % Inhn. Plus Copper Observed” value is recorded as 97.7%. Besides, the “TLB % Control” value in the series with Phytophthora infestans (setting [6]) is reported as 88.0%.
Taken in the same sequence, the figures for `O=C(N/N=C/c1ccc(Cl)cc1O)c1cccc([N+](=O)[O-])c1` [Example 393] were 233 to 238 °C, 4.3%, 96.1% and 73.0%.
Take `C/C(=N\NC(=O)c1cccc(Br)c1)c1cc(Cl)cc(Cl)c1O` [Example 138]: the melting point fell in the range of 247 to 253 °C. Moreover, the inhibition of growth at 0.05 µg/mL in series [1] (compound 0.05 μg/mL) was determined as 4%. Further, the “LEPTNO % Inhn. Plus Copper Observed” value in series [1] (setting [2]) stood at 98.1%. Also, the “TLB % Control” value in the series on Phytophthora infestans (setting [3]) stood at 91.0%.
Taken in the same sequence, the figures for `O=C(N/N=C/c1cc(Br)cc(Br)c1O)c1cc(Cl)cc(Cl)c1` [Example 117] were 267 to 269 °C, 28.8%, 98.5% and 89.5%.
Compound `COc1ccc(/C(C)=N/NC(=O)c2cccc(Cl)c2)c(O)c1OC` [Example 556] returned a melting point of 194 to 201 °C. In series [1] (setting [4]), the inhibition of growth at 0.05 µg/mL stood at 7.7%. Also, the “LEPTNO % Inhn. Plus Copper Observed” value in series [1] (setting [5]) stood at 95.9%. Further, the “TLB % Control” value with Phytophthora infestans (setting [6]) is listed as 75.0%.
The matching figures for `COc1ccc(C(=O)N/N=C(\C)c2cc(C(F)(F)F)ccc2O)cc1` [Example 534]: 228 to 231 °C, 5.1%, 95.7% and 61.0%.
Taken in the same sequence, the figures for `C/C(=N\NC(=O)c1ccccc1C)c1cc(F)cc(F)c1O` [Example 573] were 186 to 188 °C, 2.4%, 98.4% and 93.0%.
The matching figures for `O=C(N/N=C/c1cccc(Cl)c1O)c1cccc(F)c1` [Example 425]: 178 to 184 °C, 17.5%, 97.6% and 95.0%.

As usually defined, the melting point is the temperature of the solid-liquid transition.
